According to the NIST ThermoML archive (doi:10.1021/je900387e):

Experiment: xn = mol fraction of the nth substance listed
Conditions: Liquid, Pycnometric method

CCCCCl [1-chlorobutane] + O=C=O
mass density [kg/m3]
Conditions | 308.2 K | 313.1 K
6210 kPa, x1 = 0.1488 | 843 | –
6560 kPa, x1 = 0.0981 | 819 | –
6560 kPa, x1 = 0.1488 | 848 | –
6760 kPa, x1 = 0.1488 | – | 825
6790 kPa, x1 = 0.0981 | 825 | –
6850 kPa, x1 = 0.1488 | 853 | –
6910 kPa, x1 = 0.0744 | 786 | –
6980 kPa, x1 = 0.0981 | 827 | –
6980 kPa, x1 = 0.1488 | – | 828
7080 kPa, x1 = 0.0744 | 791 | –
7130 kPa, x1 = 0.0981 | – | 791
7140 kPa, x1 = 0.0981 | 831 | –
7240 kPa, x1 = 0.0483 | 742 | –
7250 kPa, x1 = 0.1488 | 858 | –
7310 kPa, x1 = 0.0981 | – | 795
7310 kPa, x1 = 0.1488 | – | 832
7320 kPa, x1 = 0.0981 | 834 | –
7330 kPa, x1 = 0.0483 | 747 | –
7430 kPa, x1 = 0.0483 | 752 | –
7460 kPa, x1 = 0.0744 | – | 754
7470 kPa, x1 = 0.0744 | 801 | –
7500 kPa, x1 = 0.0981 | 837 | –
7530 kPa, x1 = 0.0483 | 757 | –
7570 kPa, x1 = 0.0981 | – | 802
7640 kPa, x1 = 0.0243 | 670 | –
7640 kPa, x1 = 0.0744 | – | 759
7660 kPa, x1 = 0.0483 | 761 | –
7670 kPa, x1 = 0.0243 | 674 | –
7700 kPa, x1 = 0.0744 | 807 | –
7710 kPa, x1 = 0.0243 | 678 | –
7730 kPa, x1 = 0.0981 | 840 | –
7740 kPa, x1 = 0.0243 | 682 | –
7740 kPa, x1 = 0.1488 | 863 | 837
7770 kPa, x1 = 0.0744 | – | 764
7780 kPa, x1 = 0.0243 | 686 | –
7790 kPa, x1 = 0.0483 | 766 | –
7820 kPa, x1 = 0.0243 | 690 | –
7860 kPa, x1 = 0.0243 | 694 | –
7860 kPa, x1 = 0.0981 | – | 807
7890 kPa, x1 = 0.0483 | – | 693
7940 kPa, x1 = 0.0243 | 701 | –
7940 kPa, x1 = 0.0483 | 770 | 697
7940 kPa, x1 = 0.0744 | – | 769
7940 kPa, x1 = 0.0981 | 843 | –
7950 kPa, x1 = 0.0744 | 812 | –
8000 kPa, x1 = 0.0483 | – | 701
8030 kPa, x1 = 0.0243 | 707 | –
8070 kPa, x1 = 0.0744 | 814 | –
8090 kPa, x1 = 0.0744 | – | 773
8100 kPa, x1 = 0.0483 | – | 707
8110 kPa, x1 = 0.0483 | 776 | –
8120 kPa, x1 = 0.0243 | 713 | –
8170 kPa, x1 = 0.0981 | 846 | –
8180 kPa, x1 = 0.0981 | – | 813
8190 kPa, x1 = 0.1488 | – | 841
8210 kPa, x1 = 0.0483 | – | 713
8220 kPa, x1 = 0.0243 | – | 545
8230 kPa, x1 = 0.0243 | 720 | 549
8230 kPa, x1 = 0.0744 | 817 | –
8250 kPa, x1 = 0.0243 | – | 555
8270 kPa, x1 = 0.0744 | – | 778
8280 kPa, x1 = 0.0243 | – | 563
8280 kPa, x1 = 0.0483 | 780 | –
8290 kPa, x1 = 0.1488 | 868 | –
8300 kPa, x1 = 0.0243 | – | 571
8330 kPa, x1 = 0.0243 | – | 580
8340 kPa, x1 = 0.0483 | – | 719
8350 kPa, x1 = 0.0243 | 727 | –
8350 kPa, x1 = 0.0744 | 820 | –
8360 kPa, x1 = 0.0243 | – | 588
8390 kPa, x1 = 0.0981 | 849 | –
8400 kPa, x1 = 0.0243 | – | 597
8450 kPa, x1 = 0.0483 | – | 725
8470 kPa, x1 = 0.0243 | – | 610
8470 kPa, x1 = 0.0483 | 785 | –
8470 kPa, x1 = 0.0744 | – | 782
8480 kPa, x1 = 0.0243 | 734 | –
8500 kPa, x1 = 0.0744 | 822 | –
8510 kPa, x1 = 0.0981 | – | 819
8550 kPa, x1 = 0.0243 | – | 623
8560 kPa, x1 = 0.0483 | 788 | –
8570 kPa, x1 = 0.0243 | 738 | –
8600 kPa, x1 = 0.0483 | – | 732
8630 kPa, x1 = 0.0981 | 852 | –
8640 kPa, x1 = 0.0744 | 825 | –
8650 kPa, x1 = 0.0243 | – | 637
8670 kPa, x1 = 0.0483 | 790 | –
8680 kPa, x1 = 0.0744 | – | 787
8760 kPa, x1 = 0.0483 | – | 738
8770 kPa, x1 = 0.0243 | – | 651
8770 kPa, x1 = 0.0483 | 793 | –
8800 kPa, x1 = 0.0243 | 748 | –
8830 kPa, x1 = 0.0744 | 828 | –
8840 kPa, x1 = 0.1488 | 873 | –
8890 kPa, x1 = 0.0483 | 795 | –
8890 kPa, x1 = 0.0981 | – | 825
8900 kPa, x1 = 0.0744 | – | 792
8900 kPa, x1 = 0.0981 | 856 | –
8910 kPa, x1 = 0.0243 | 753 | –
8910 kPa, x1 = 0.1488 | – | 849
8930 kPa, x1 = 0.0243 | – | 666
8940 kPa, x1 = 0.0483 | – | 745
8970 kPa, x1 = 0.0744 | 830 | –
9000 kPa, x1 = 0.0483 | 798 | –
9050 kPa, x1 = 0.0243 | 758 | –
9120 kPa, x1 = 0.0483 | 800 | –
9130 kPa, x1 = 0.0243 | – | 682
9150 kPa, x1 = 0.0483 | – | 751
9150 kPa, x1 = 0.0744 | – | 797
9160 kPa, x1 = 0.0744 | 833 | –
9160 kPa, x1 = 0.0981 | 859 | –
9190 kPa, x1 = 0.0243 | 763 | –
9230 kPa, x1 = 0.0483 | 803 | –
9260 kPa, x1 = 0.0981 | – | 830
9330 kPa, x1 = 0.0744 | 836 | –
9350 kPa, x1 = 0.0483 | 805 | –
9370 kPa, x1 = 0.0483 | – | 759
9390 kPa, x1 = 0.0243 | – | 698
9410 kPa, x1 = 0.0744 | – | 802
9450 kPa, x1 = 0.0981 | 862 | –
9450 kPa, x1 = 0.1488 | – | 853
9480 kPa, x1 = 0.1488 | 878 | –
9490 kPa, x1 = 0.0483 | 808 | –
9530 kPa, x1 = 0.0744 | 838 | –
9620 kPa, x1 = 0.0483 | – | 765
9640 kPa, x1 = 0.0483 | 811 | –
9670 kPa, x1 = 0.0744 | – | 807
9700 kPa, x1 = 0.0744 | 841 | –
9710 kPa, x1 = 0.0243 | – | 716
9720 kPa, x1 = 0.0981 | – | 837
9780 kPa, x1 = 0.0483 | 813 | –
9780 kPa, x1 = 0.0981 | 865 | –
9810 kPa, x1 = 0.0483 | – | 770
9910 kPa, x1 = 0.0483 | 815 | –
9940 kPa, x1 = 0.0744 | 844 | –
9960 kPa, x1 = 0.0744 | – | 812
10000 kPa, x1 = 0.0483 | – | 775
10020 kPa, x1 = 0.0243 | – | 729
10030 kPa, x1 = 0.0981 | 869 | –
10110 kPa, x1 = 0.0744 | 846 | –
10150 kPa, x1 = 0.1488 | 883 | –
10190 kPa, x1 = 0.0981 | – | 843
10220 kPa, x1 = 0.0483 | – | 780
10270 kPa, x1 = 0.1488 | – | 860
10280 kPa, x1 = 0.0243 | – | 738
10290 kPa, x1 = 0.0744 | – | 817
10380 kPa, x1 = 0.0981 | 872 | –
10460 kPa, x1 = 0.0483 | – | 785
10510 kPa, x1 = 0.0981 | 874 | –
10550 kPa, x1 = 0.0243 | – | 748
10620 kPa, x1 = 0.0744 | – | 823
10680 kPa, x1 = 0.0483 | – | 790
10690 kPa, x1 = 0.0981 | – | 849
10700 kPa, x1 = 0.0243 | – | 753
10850 kPa, x1 = 0.0243 | – | 758
10850 kPa, x1 = 0.1488 | 888 | –
10860 kPa, x1 = 0.1488 | – | 865
10950 kPa, x1 = 0.0483 | – | 795
11620 kPa, x1 = 0.1488 | 893 | –
12430 kPa, x1 = 0.1488 | 898 | –
13270 kPa, x1 = 0.1488 | 904 | –
13660 kPa, x1 = 0.1488 | 906 | –
14090 kPa, x1 = 0.1488 | 909 | –
14420 kPa, x1 = 0.1488 | 911 | –
14870 kPa, x1 = 0.1488 | 914 | –
